Consider eight compounds from patent US4668686A, “Imidazoquinoline antithrombrogenic cardiotonic agents” (Bristol-Myers Company, priority 1986, dated 1987).

Test [1] relates to platelet aggregation vs. ADP. In words: Inhibition of platelet aggregation following oral administration (Ex vivo). In kind it is in vivo. The conditions noted are these: Rattus norvegicus, rats, 2 hours after dosing. Here is the method: This test is sometimes referred to in the art as an Ex vivo method and was initially described by Fleming, et al., Arch. Int. Pharmacodyn. Ther., 199, 164 (1972). Briefly, the assay is essentially carried out as follows. Aggregometry is performed in vitro as previously described on platelet rich plasma samples obtained from rats dosed with either test compounds or the vehicle. In all cases, activity is determined 2 hours after the drug is administered orally at various doses by gavage as a suspension in […] plus a few drops of Tween 20.

In test [2] the test system is ADP-induced platelet aggregation. The test can be described thus: In vitro inhibition of ADP-induced platelet aggregation (aggregometer, rabbit PRP). The conditions noted are these: Oryctolagus cuniculus, read-out: Platelet Inhibition In Vitro - Rabbit PRP EC50 vs. ADP. Format: cell-based. Here is the method: (§1) The aggregometer method of Born (1), as modified by Mustard, et al. (2) was used to assess the in vitro activity of the various compounds as to inhibition of adenosine diphosphate (ADP) and collagen-induced platelet aggregation. Platelet rich plasma (PRP) was separated by centrifugation from citrated (3.8 percent) rabbit blood. […] The various compounds tested were dissolved in dimethylsulfoxide (DMSO) so that 5 mcl added to the platelet rich plasma would yield the desired test concentration. Vehicle control trials were done and compared with aggregation induced in platelet rich plasma containing various concentrations of the test compounds. Dose response curves were obtained and Effective Concentration (EC50) values calculated.

Test [3] relates to collagen-induced platelet aggregation. In words: In vitro inhibition of collagen-induced platelet aggregation (aggregometer, rabbit PRP). In kind it is cell-based. The conditions noted are these: Oryctolagus cuniculus, read-out: Platelet Inhibition In Vitro - Rabbit PRP EC50 vs. collagen. The procedure:
as §1

Test [4] addresses T1, cAMP phosphodiesterase (PDE) obtained from human platelets (Homo sapiens, UniProt Q14432).
T1 construct: obtained from human platelets; from tissue; host or cells: human platelets
The test can be described thus: Inhibition of cyclic AMP phosphodiesterase. In kind it is biochemical. Here is the method: This assay is carried out essentially as described by Thompson, et al., Methods in Enzymology, 38, 205-212 (1974). Briefly, tritium labeled cyclic adenosine monophosphate (cAMP) is incubated with a phosphodiesterase (PDE) enzynme obtained from human platelets which converts a portion of the cAMP to 5'AMP in culture tubes. This reaction is terminated by submerging the tubes in a boiling water bath after which they are placed on ice and an aliquot of snake venom is added to each tube. This, during a second incubation, converts the 5'AMP to adenosine. Ion exchange resin is added to bind the remaining cyclic AMP. The tubes are centrifuged to sediment the resin and a portion of the clear supernatent (which contains radioactive adenosine) is counted in a liquid scintillation counter. The cAMP phosphodiesterase inhibition activity of a test agent is determined by pre-incubating the PDE enzyme preparation with the test agent.

For test [5], the system named is right ventricular contractile force (RVCF). In words: In vivo inotropic activity (right ventricular contractile force, anesthetized ferrets). Particulars: Mustela putorius, intraduodenal, read-out: Inotropic Activity In Vivo - Ferret % Change RVCF. The procedure: This test is carried out in ferrets as follows.
Fasted anesthetized ferrets are instrumented to study hemodynamic parameters as well as right ventricular contractile force using a Walton-Brodie open strain guage arch. Drugs are administered intraduodenally as solutions in DMSO (1 mL or less) and effects on myocardial contractile force and other parameters are monitored for 60 minutes after dosing. Changes in contractile force in response to drug treatment are expressed in terms of percent change from predose control.

The mark [6] stands for this setting: 3 mg/kg, i.d., mean ± standard error when n more than 1.

Molecules are shown by their SMILES. Values after ≈ are worked out from the molar mass of the structure shown. Like-named read-outs stand apart in the source and are kept apart here. Where only a bound is given, the exact number is not on record here.

T1 sequence (Q14432 whole entry): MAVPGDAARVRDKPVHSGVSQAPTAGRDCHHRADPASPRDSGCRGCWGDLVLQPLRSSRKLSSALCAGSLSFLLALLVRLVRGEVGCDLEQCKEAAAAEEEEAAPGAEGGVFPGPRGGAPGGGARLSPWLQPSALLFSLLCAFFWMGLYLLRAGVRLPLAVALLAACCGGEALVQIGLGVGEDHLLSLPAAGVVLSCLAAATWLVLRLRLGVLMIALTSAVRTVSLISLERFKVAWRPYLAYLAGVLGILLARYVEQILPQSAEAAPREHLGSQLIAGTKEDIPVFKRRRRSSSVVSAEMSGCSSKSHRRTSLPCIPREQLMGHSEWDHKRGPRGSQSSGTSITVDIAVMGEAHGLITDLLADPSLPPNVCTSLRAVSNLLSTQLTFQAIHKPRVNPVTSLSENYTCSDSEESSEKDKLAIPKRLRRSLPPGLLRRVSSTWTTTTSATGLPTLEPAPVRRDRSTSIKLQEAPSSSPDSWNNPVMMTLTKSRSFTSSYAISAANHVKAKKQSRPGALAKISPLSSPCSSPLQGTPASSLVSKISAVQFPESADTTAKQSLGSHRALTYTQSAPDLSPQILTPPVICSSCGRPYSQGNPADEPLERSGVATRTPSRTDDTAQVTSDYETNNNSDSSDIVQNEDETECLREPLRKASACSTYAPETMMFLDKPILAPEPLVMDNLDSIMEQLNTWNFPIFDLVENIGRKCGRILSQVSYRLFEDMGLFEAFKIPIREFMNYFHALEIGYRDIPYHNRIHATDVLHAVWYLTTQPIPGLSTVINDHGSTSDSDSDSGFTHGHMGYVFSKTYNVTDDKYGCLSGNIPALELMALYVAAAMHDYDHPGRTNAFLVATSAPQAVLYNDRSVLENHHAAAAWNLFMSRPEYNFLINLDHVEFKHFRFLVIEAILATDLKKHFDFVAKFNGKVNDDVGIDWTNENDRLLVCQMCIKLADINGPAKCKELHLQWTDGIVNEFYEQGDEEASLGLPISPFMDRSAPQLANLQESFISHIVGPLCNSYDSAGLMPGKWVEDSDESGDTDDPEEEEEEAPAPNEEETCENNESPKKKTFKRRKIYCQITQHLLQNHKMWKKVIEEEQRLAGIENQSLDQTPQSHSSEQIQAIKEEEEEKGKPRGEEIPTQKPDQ

`OCCN(CCO)c1nc(N2CCCCC2)c2nc(N(CCO)CCO)nc(N3CCCCC3)c2n1` [dipyridamole, reference compound]: in test [1], the ED50 is > 100 mg/kg. Further, the EC50 in test [2] is > 512 µg/mL.

Regarding `Cc1ccc2c(c1C)CC1NC(=O)NC1=N2` (centres unmarked) [Example 35, 7,8-Dimethyl-1,3,9,9a-tetrahydro-2H-imidazo-[4,5-b]quinolin-2-one], the EC50 is 0.04 µg/mL (≈ 0.186 µM) in test [3] and 0.1 µg/mL (≈ 0.465 µM) in test [2]. In addition, the ED50 in test [1] is > 10 mg/kg. The same compound showed an IC50 in test [4] of 30 nM.

In the case of `Cc1[nH]c(=O)c(C#N)cc1-c1ccncc1` [milrinone, reference compound], the change in vivo at 3 mg/kg in test [5] is 52%.

For the compound `Cc1cccc2c1CC1C(=N2)NC(=O)N1C` (centres unmarked) [Example 36, 1,3,9,9a-Tetrahydro-1,8-dimethyl-2H-imidazo[4,5-b]quinolin-2-one], the EC50 is 12 µg/mL (≈ 55.7 µM) in test [3] and 20 µg/mL (≈ 92.9 µM) in test [2].

In the case of `Cc1cccc2c1CC1NC(=O)NC1=N2` (centres unmarked) [Example 20-3, 8-methyl-1,3,9,9a-tetrahydro-2H-imidazo[4,5-b]quinolin-2-one], the EC50 came to 0.03 µg/mL (≈ 0.149 µM) in test [3] and 0.05 µg/mL (≈ 0.248 µM) in test [2]. The change in vivo at 0.3 mg/kg in test [5] (0.3 mg/kg, i.d.) was 30 ± 5%. In addition, the change in vivo at 3 mg/kg in test [5] (setting [6]) turned out to be 15 ± 4%. This compound showed an IC50 in test [4] of 100 nM.

As to `O=c1[nH]c2cc3ccc(C(F)(F)F)cc3nc2[nH]1` [Example 25, 1,3-Dihydro-6-(trifluoromethyl)-2H-imidazo[4,5-b]quinolin-2-one], the values for the EC50 in test [3] and in test [2] were 0.7 µg/mL (≈ 2.76 µM) and 0.4 µg/mL (≈ 1.58 µM), respectively. Also, the ED50 in test [1] is > 10 mg/kg. Also, in test [4], the IC50 is 300 nM.

As for `COc1ccc2nc3[nH]c(=O)[nH]c3cc2c1` [Example 12, 7-Methoxy-1,3-dihydro-2H-imidazo[4,5-b]quinolin-2-one], in test [3], the EC50 was 0.02 µg/mL (≈ 0.0929 µM). In test [5] (setting [6]), the change in vivo at 3 mg/kg worked out at 11 ± 4%.

For `O=c1[nH]c2cc3cc(Br)ccc3nc2[nH]1` [Example 22, 7-Bromo-1,3-dihydro-2H-imidazo[4,5-b]quinolin-2-one], the EC50 in test [3] is 0.2 µg/mL (≈ 0.757 µM); in test [2], 0.3 µg/mL (≈ 1.14 µM). In test [4], this compound came in with an IC50 of 100 nM.
